The results in this text go back to the supplement of paper PMC7023306.

± gives the uncertainty stated by the source.

A short description of the data set: TIMS collision cross section in N2 (TIMS CCS N2); higher = larger gas-phase ion size. As to conditions: drift gas: N2 (99.4% N2, 0.6% O2), calibration: Stow et al. 2017 values for Agilent ESI-L Low Concentration Tune Mix, ionization: negative ESI.

For the compound `O=c1cc(-c2ccc(O)cc2)oc2cc(O[C@@H]3O[C@H](CO)[C@@H](O)[C@H](O)[C@H]3O[C@@H]3OC[C@](O)(CO)[C@H]3O)cc(O)c12` [apiin], the “TIMS collision cross section in N2” value (ion species: [M-H]-) stood at 223.96 ± 0.26 Å².
Regarding `CC1(C)CC[C@]2(C(=O)O)CC[C@]3(C)C(=CC[C@@H]4[C@@]5(C)C[C@H](O)[C@H](O)[C@@](C)(CO)[C@@H]5CC[C@]43C)[C@@H]2C1` [bayogenin], the “TIMS collision cross section in N2” value turned out to be 234.73 ± 0.27 Å² (ion species: [M-H+HCO2H]-) and 225.09 ± 0.24 Å² (ion species: [M-H]-).
As for `C[C@@H]1O[C@@H](O[C@H]2[C@H](Oc3cc(O)c4c(c3)O[C@H](c3ccc(O)c(O)c3)CC4=O)O[C@H](CO)[C@@H](O)[C@@H]2O)[C@H](O)[C@H](O)[C@H]1O` [eriodictyol-7-neohesperidoside], the “TIMS collision cross section in N2” value is 222.52 ± 0.16 Å² (ion species: [M-3H]-), 234.56 ± 0.42 Å² (ion species: [M-H+Na+HCO2H]-) and 222.66 ± 0.095 Å² (ion species: [M-H]-).
Take `O=c1c(O)c(-c2ccccc2)oc2cc(O)cc(O)c12` [galangin]: the “TIMS collision cross section in N2” value is, setting by setting: (ion species: [2M-H]-) 238 ± 0.12 Å²; (ion species: [M-H]-) 156.93 ± 0.11 Å².
The corresponding values for `CC(C)=CCc1c(O)ccc2c1O[C@H](c1ccc(O)cc1)CC2=O` [isobavachin] are 237.66 ± 0.46 Å² and 185.17 ± 0.47 Å².
Take `O=c1c(O[C@@H]2O[C@H](CO)[C@@H](O)[C@H](O)[C@H]2O)c(-c2ccc(O)cc2)oc2cc(O)cc(O)c12` [kaempferol-3-O-glucoside]: the “TIMS collision cross section in N2” value (ion species: [2M-H]-) is given as 279.93 ± 1.2 Å², the “TIMS collision cross section in N2” value (ion species: [M-H+Na+HCO2H]-) was found to be 222.09 ± 0.65 Å² and the “TIMS collision cross section in N2” value (ion species: [M-H]-) is listed as 200.44 ± 0.33 Å².
On the same counts, the results for `O=c1c(O)c(-c2ccc(O)cc2)oc2cc(OC3OC(CO)C(O)C(O)C3O)cc(O)c12` (centres undefined) [kaempferol-7-O-glucoside] are 283.76 ± 0.75 Å², 230.04 ± 0.3 Å² and 209.17 ± 0.14 Å².
As to `CC1(C)CC[C@]2(C(=O)O)CC[C@]3(C)C(=CC[C@@H]4[C@@]5(C)C[C@H](O)[C@H](O)[C@@](C)(C(=O)O)[C@@H]5CC[C@]43C)[C@@H]2C1` [medicagenic acid], the “TIMS collision cross section in N2” value (ion species: [M-H+Na+HCO2H]-) is 243.47 ± 0.081 Å² and the “TIMS collision cross section in N2” value (ion species: [M-H]-) is given as 226.23 ± 0.27 Å².
Consider `CCCCCCCCCCO[C@@H]1O[C@H](CO)[C@@H](O)[C@H](O)[C@H]1O` [n-Decyl-beta-D-glucopyranoside], for which the “TIMS collision cross section in N2” value reads like this: (ion species: [2M-H]-) 277.92 ± 0.32 Å²; (ion species: [M-H+HCO2H]-) 198.21 ± 0.31 Å²; (ion species: [M-H]-) 189.39 ± 0.39 Å².
The corresponding values for `CCCCCCCCO[C@@H]1O[C@H](CO)[C@@H](O)[C@H](O)[C@H]1O` [n-Octyl-beta-D-glucopyranoside] are 272.83 ± 0.74 Å², 190.02 ± 0.2 Å² and 181.3 ± 0.15 Å².
Regarding `CCCCCCCCCCCCC(=O)O` [n-Tridecanoic acid], the “TIMS collision cross section in N2” value (ion species: [M-H]-) is recorded as 159.43 ± 0.061 Å².
On the same count and under the same terms, the figure for `COc1ccc(CCC(=O)c2c(O)cc(O[C@@H]3O[C@H](CO)[C@@H](O)[C@H](O)[C@H]3O[C@@H]3O[C@@H](C)[C@H](O)[C@@H](O)[C@H]3O)cc2O)cc1O` [neohesperidin dihydrochalcone] is 232.21 ± 0.35 Å².
In the case of `COc1ccc(-c2cc(=O)c3c(O)c(OC)c(O)c(OC)c3o2)cc1` [nevadensin], the “TIMS collision cross section in N2” value runs as follows: (ion species: [M-H+Na+HCO2H]-) 199.45 ± 0.091 Å²; (ion species: [M-H]-) 182.82 ± 0.12 Å².
With `COc1cc(O)c2c(c1)O[C@H](c1ccc(O)cc1)CC2=O` [sakuranetin], where the note is “ion species: [M-H]-”, the “TIMS collision cross section in N2” value was determined as 168.54 ± 0.27 Å².
Take `COc1cc(-c2cc(=O)c3c(O)c(OC)c(O)c(OC)c3o2)cc(O)c1OC` [scaposin]: the “TIMS collision cross section in N2” value reads like this: (ion species: [M-H+Na+HCO2H]-) 209.41 ± 0.26 Å²; (ion species: [M-H]-) 193.54 ± 0.18 Å².
Take `O=C(O)[C@H]1O[C@@H](Oc2cc3oc(-c4ccc(O)cc4)cc(=O)c3c(O)c2O)[C@H](O)[C@@H](O)[C@@H]1O` [scutellarin (Scutellarein-7-glucuronide)]: where the note is “ion species: [M-3H]-”, the “TIMS collision cross section in N2” value worked out at 206.59 ± 0.074 Å².
Turning to `COc1cc([C@@H]2Oc3c(O)cc([C@H]4Oc5cc(O)cc(O)c5C(=O)[C@@H]4O)cc3[C@H]2CO)ccc1O` [silychristin], the “TIMS collision cross section in N2” value (ion species: [M-H]-) is listed as 201.63 ± 0.24 Å².
For `CC1(C)C[C@H]2C3=CC[C@@H]4[C@@]5(C)CC[C@H](O)[C@](C)(CO)[C@@H]5CC[C@@]4(C)[C@]3(C)CC[C@@]2(C)[C@H](O)[C@@H]1O` [soyasapogenol A], for the setting “ion species: [M-H+HCO2H]-”, the “TIMS collision cross section in N2” value worked out at 224.66 ± 0.27 Å².
